Measurements: article PMC3040809 (Amino Acids, 2010)

Experiments:
[1] = physiological pH; ref Lenzen and Munday [1991]; cited from earlier work
[2] = system: cellular levels of O-GlcNAcylation; settings: ref Liu et al. [2005], [2006], [2007]; Noach et al. [2007]; Kang et al. [2008]; cited from earlier work
[3] = molecular target: T1, hOGT (Homo sapiens, UniProt O15294); assay type: biochemical
T1 sequence (O15294 26-1036 isoform O15294-3): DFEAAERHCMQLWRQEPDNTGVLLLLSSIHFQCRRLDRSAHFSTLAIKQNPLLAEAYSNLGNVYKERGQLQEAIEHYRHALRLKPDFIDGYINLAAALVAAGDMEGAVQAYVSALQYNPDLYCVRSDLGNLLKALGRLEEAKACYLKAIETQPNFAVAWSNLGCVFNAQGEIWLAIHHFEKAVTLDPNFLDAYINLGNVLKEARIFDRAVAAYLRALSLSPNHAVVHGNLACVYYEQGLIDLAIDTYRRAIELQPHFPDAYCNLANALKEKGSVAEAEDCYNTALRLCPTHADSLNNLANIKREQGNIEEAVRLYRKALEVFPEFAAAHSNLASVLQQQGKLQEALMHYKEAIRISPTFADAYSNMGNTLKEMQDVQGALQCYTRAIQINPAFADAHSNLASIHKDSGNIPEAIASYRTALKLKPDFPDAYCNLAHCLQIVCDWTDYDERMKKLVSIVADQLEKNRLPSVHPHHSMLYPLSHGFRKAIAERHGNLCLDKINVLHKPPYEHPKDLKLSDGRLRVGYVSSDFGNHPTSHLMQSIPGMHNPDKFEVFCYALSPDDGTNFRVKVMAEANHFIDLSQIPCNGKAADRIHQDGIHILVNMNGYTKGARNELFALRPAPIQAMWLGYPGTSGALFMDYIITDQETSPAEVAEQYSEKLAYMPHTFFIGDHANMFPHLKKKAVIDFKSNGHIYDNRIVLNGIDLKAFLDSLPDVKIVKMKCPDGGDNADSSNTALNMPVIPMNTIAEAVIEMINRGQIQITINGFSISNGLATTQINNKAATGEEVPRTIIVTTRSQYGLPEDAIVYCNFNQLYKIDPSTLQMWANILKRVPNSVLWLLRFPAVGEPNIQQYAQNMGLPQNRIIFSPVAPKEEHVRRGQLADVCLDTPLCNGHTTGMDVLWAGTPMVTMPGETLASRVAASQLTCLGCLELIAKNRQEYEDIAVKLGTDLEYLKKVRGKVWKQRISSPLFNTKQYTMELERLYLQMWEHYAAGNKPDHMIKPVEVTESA

O=C1NC(=O)C(=O)C(=O)N1 [Alloxan]
half-life time [1]: 1.5 min | concentration required to decrease cellular levels of O-GlcNAcylation [2]: millimolar concentrations | IC50 [3]: 18 ± 1 µM
